Data reported in patent US11318157B2, “6-6 bicyclic aromatic ring substituted nucleoside analogues for use as PRMT5 inhibitors” (Janssen Pharmaceutica NV, priority 2015, dated 2022).
Like-named read-outs stand apart in the source and are kept apart here.

Assays:
PRMT5-MEP50 enzyme [1] = biological target: T1, PRMT5-MEP50 enzyme (Homo sapiens, UniProt O14744); experiment: In vitro assay 1a: high throughput mass spectrometer assay of SAH formation, 10 nM enzyme, 60 min; format: biochemical; conditions: averaged values, PRMT5-MEP50, 10 nM enzyme, read-out: pIC50 Assay 1a (converted)
T1 construct: One virus expresses full length human PRMT5 with Flag-tag at N-terminus; Flag (N); purchased Charles River (Argenta); host or cells: insect cells (Sf9), baculovirus co-infection
T1 sequence (O14744 whole entry): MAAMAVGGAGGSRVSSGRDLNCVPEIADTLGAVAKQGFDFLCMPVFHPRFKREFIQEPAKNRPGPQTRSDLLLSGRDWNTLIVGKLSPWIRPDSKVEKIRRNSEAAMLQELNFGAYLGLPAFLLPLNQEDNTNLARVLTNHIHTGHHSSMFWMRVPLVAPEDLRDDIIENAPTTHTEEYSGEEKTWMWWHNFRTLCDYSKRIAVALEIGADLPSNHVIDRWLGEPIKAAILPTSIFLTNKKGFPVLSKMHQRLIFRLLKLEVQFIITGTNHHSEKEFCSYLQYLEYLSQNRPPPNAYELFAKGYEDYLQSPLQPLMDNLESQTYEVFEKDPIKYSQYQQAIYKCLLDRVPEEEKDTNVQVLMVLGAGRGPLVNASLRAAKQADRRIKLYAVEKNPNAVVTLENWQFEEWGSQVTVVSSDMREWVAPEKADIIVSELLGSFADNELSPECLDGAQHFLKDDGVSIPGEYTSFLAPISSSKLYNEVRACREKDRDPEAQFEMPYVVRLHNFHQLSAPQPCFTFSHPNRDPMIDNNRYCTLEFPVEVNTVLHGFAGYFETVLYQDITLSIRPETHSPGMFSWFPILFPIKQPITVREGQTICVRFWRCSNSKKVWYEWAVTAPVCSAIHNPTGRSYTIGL
T1 sequence (Q9BQA1 whole entry partner): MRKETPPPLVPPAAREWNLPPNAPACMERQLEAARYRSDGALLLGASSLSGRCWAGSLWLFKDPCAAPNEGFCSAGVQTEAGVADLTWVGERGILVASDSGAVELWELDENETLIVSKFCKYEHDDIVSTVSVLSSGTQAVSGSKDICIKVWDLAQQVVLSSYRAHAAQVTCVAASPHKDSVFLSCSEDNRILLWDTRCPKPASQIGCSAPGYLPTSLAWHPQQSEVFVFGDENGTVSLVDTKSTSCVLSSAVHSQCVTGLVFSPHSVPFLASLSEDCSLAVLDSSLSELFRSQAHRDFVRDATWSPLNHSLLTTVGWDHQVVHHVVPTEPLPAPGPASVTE
In short: (§1)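 Flag-PRMT5/His-MEP50 complex from Sf9 cells, with 1 μM SAM and 0.3 μM full-length histone H2A in pH 8.5 Tris buffer, at 30 °C; 10 nM enzyme for 60 min (1a) or 1.25 nM for 120 min (1b). Formic acid-quenched SAH read by RapidFire MS/MS; 11-point IC50 with Hill fit.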

[2] = tested on: nuclear symmetric Arginine dimethylation in A549 cells; experiment: PD assay (assay 2): inhibition of nuclear symmetric Arginine dimethylation (SYM10 immunohistochemistry), 48 h; format: cell-based; conditions: Homo sapiens
In short: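 Cells seeded at 400/well overnight, then treated 48 h at 37 °C, final DMSO 0.2%. Fixed and stained with SYM10 antibody plus Alexa 488 secondary, Hoechst and CellMask, then imaged on Opera. Normalized to DMSO (high) and 10 μM reference compound (low); averaged pIC50 reported.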

PRMT5-MEP50 enzyme [3] = biological target: T1, PRMT5-MEP50 enzyme; experiment: In vitro assay 1b: high throughput mass spectrometer assay of SAH formation, 1.25 nM enzyme, 120 min; format: biochemical; conditions: averaged values; PRMT5-MEP50, 1.25 nM enzyme, 120 min; read-out: pIC50 Assay 1b (converted)
In short: as §1

MCL xenograft models = conditions: multiple MCL xenograft models; cited from earlier work
PRMT5 = PRMT5 (Homo sapiens, UniProt O14744); conditions: literature statement; cited from earlier work
Chain of PRMT5 (O14744 whole entry, species assumed): as the sequence (O14744 whole entry) above
Chain of PRMT5 (Q9BQA1 whole entry partner, species assumed): as the sequence (Q9BQA1 whole entry partner) above

[4] = A549, averaged values, PD assay, A549 cells, symmetric Arginine dimethylation, read-out: pIC50 Assay 2 (converted)
[5] = A549, read-out: pIC50 Assay 2 (converted)

| SMILES | IC50 (PRMT5-MEP50 enzyme [1]) [nM] | IC50 [2, 4] [nM] | IC50 (PRMT5-MEP50 enzyme [3]) [nM] | IC50 [2, 5] [nM] | anti-tumour activity (MCL xenograft models) | potency as PRMT5 inhibitor (PRMT5) |
| --- | --- | --- | --- | --- | --- | --- |
| O[C@@H]1[C@@H](CCc2ccc3ccc(NCC4CC4)nc3c2)C[C@@H](n2ccc3cncnc32)[C@@H]1O [Compound 166] | 1 | 1 | 5.01 | – | – | – |
| CNc1ccc2ccc(CC[C@H]3O[C@@H](n4ccc5cncnc54)[C@H](O)[C@@H]3O)cc2n1 [Compound 169] | 10 | 50.1 | 63.1 | – | – | – |
| O[C@@H]1[C@@H](CCc2ccc3ccc(NCc4ccc(Cl)cc4)nc3c2)C[C@@H](n2ccc3cncnc32)[C@@H]1O [Compound 171] | 0.794 | 3.16 | 6.31 | – | – | – |
| O[C@@H]1[C@@H](CCc2ccc3ccc(NCc4ccccc4)nc3c2)C[C@@H](n2ccc3cncnc32)[C@@H]1O [Compound 172] | 0.501 | < 1.17 | 3.98 | – | – | – |
| O[C@@H]1[C@H](O)[C@@H](COc2ccc3ccc(NCc4ccc(Cl)cc4)nc3c2)O[C@H]1n1ccc2cncnc21 [Compound 173] | 2 | 39.8 | 15.8 | – | – | – |
| CNc1ccc2ccc(OC[C@H]3O[C@@H](n4ccc5cncnc54)[C@H](O)[C@@H]3O)cc2n1 [Compound 174] | 10 | 126 | 50.1 | – | – | – |
| Cc1ncnc2c1ccn2[C@@H]1O[C@H](CCc2ccc3ccc(NCc4ccc(Cl)cc4)nc3c2)[C@@H](O)[C@H]1O [Compound 177] | 10 | 63.1 | 31.6 | – | – | – |
| CNc1ncnc2c1ccn2[C@@H]1O[C@H](COc2ccc3ccc(N)nc3c2)[C@@H](O)[C@H]1O [Compound 186] | 2 | 79.4 | 15.8 | – | – | – |
| COc1ncnc2c1ccn2[C@@H]1O[C@H](COc2ccc3ccc(N)nc3c2)[C@@H](O)[C@H]1O [Compound 187] | 10 | 25.1 | 79.4 | – | – | – |
| CNC(=O)c1cnc2cc(OC[C@H]3O[C@@H](n4ccc5c(N)ncnc54)[C@H](O)[C@@H]3O)ccc2c1 [Compound 189] | 316 | 251 | 1000 | – | – | – |
| Cc1ncnc2c1ccn2[C@@H]1C[C@H](CCc2ccc3ccc(NCC4CC4)nc3c2)[C@@H](O)[C@H]1O [Compound 190] | 0.501 | ~1.86 | 5.01 | – | – | – |
| Cc1ncnc2c1ccn2[C@@H]1O[C@H](CCc2ccc3ccc(N)nc3c2)[C@@H](O)[C@H]1O [Compound 192] | 0.631 | 3.16 | 10 | – | – | – |
| Cc1ncnc2c1ccn2[C@@H]1C[C@H](CCc2ccc3ccc(NCc4ccc(Cl)cc4)nc3c2)[C@@H](O)[C@H]1O [Compound 193] | 1 | 3.16 | 7.94 | – | – | – |
| Cc1ncnc2c1ccn2[C@@H]1O[C@H](COc2ccc3ccc(NCc4ccc(Cl)cc4)nc3c2)[C@@H](O)[C@H]1O [Compound 205] | 3.16 | 50.1 | 25.1 | – | – | – |
| Nc1ccc2ccc(OC[C@H]3O[C@@H](n4ccc5c(O)ncnc54)[C@H](O)[C@@H]3O)cc2n1 [Compound 208] | 2510 | > 10000 | 1260 | – | – | – |
| C=C(C)c1cnc2cc(OC[C@H]3O[C@@H](n4ccc5c(N)ncnc54)[C@H](O)[C@@H]3O)ccc2c1 [Compound 212] | 20 | – | 50.1 | 200 | – | – |
| CCc1cnc2cc(OC[C@H]3O[C@@H](n4ccc5c(N)ncnc54)[C@H](O)[C@@H]3O)ccc2c1 [Compound 213] | 7.94 | 63.1 | 15.8 | – | – | – |
| Nc1ccc2ccc(OC[C@H]3O[C@@H](n4ccc5c(N)ncnc54)[C@H](O)[C@@H]3O)cc2n1 [Compound 218] | 2.51 | – | 5.01 | 5.01 | – | – |
| Nc1ncnc2c1ncn2[C@@H]1O[C@H](COc2cc3ncc(Br)cc3cc2Cl)[C@@H](O)[C@H]1O [Compound 219] | 3980 | 7940 | > 100000 | – | – | – |
| Nc1ncnc2c1ncn2[C@@H]1O[C@H](COc2ccc3cc(Br)cnc3c2)[C@@H](O)[C@H]1O [Compound 220] | 316 | 2510 | 501 | – | – | – |
| Nc1ncnc2c1ccn2[C@@H]1C[C@H](COc2ccc3cc(Cl)cnc3c2)[C@@H](O)[C@H]1O [Compound 222] | 31.6 | ~174 | 63.1 | – | – | – |
| O=C(NC[C@H](O)CN1CCc2ccccc2C1)c1cc(NC2COC2)ncn1 [EPZ015666] | – | – | – | – | anti-tumour activity | sub-nanomolar |

The next lines start with results.

| IC50 (PRMT5-MEP50 enzyme [1]) [nM] | IC50 [2, 4] [nM] | IC50 (PRMT5-MEP50 enzyme [3]) [nM] | SMILES | IC50 [2, 5] [nM] | anti-tumour activity (MCL xenograft models) | potency as PRMT5 inhibitor (PRMT5) |
| --- | --- | --- | --- | --- | --- | --- |
| 0.794 | 3.16 | 5.01 | Nc1ccc2ccc(CC[C@H]3O[C@@H](n4ccc5cncnc54)[C@H](O)[C@@H]3O)cc2n1 [Compound 167] | – | – | – |
| 3.98 | 126 | 50.1 | O[C@@H]1[C@H](O)[C@@H](CCc2ccc3ccc(NCC4CC4)nc3c2)O[C@H]1n1ccc2cncnc21 [Compound 168] | – | – | – |
| 6.31 | 79.4 | 63.1 | O[C@@H]1[C@H](O)[C@@H](COc2ccc3ccc(NCC4CC4)nc3c2)O[C@H]1n1ccc2cncnc21 [Compound 170] | – | – | – |
| > 10000 | > 10000 | 3160 | COCc1ccc2ccc(OC[C@H]3O[C@@H](n4ccc5c(N)ncnc54)[C@H](O)[C@@H]3O)cc2n1 [Compound 175] | – | – | – |
| 0.501 | 3.16 | 3.98 | CNc1ccc2ccc(CC[C@H]3C[C@@H](n4ccc5c(C)ncnc54)[C@H](O)[C@@H]3O)cc2n1 [Compound 176] | – | – | – |
| 3.98 | 50.1 | 7.94 | CNc1ccc2ccc(OC[C@H]3O[C@@H](n4ccc5c(N)ncnc54)[C@H](O)[C@@H]3O)cc2n1 [Compound 185] | – | – | – |
| 200 | 1260 | 631 | COc1ncnc2c1ccn2[C@@H]1O[C@H](CCc2ccc3ccc(NCC4CC4)nc3c2)[C@@H](O)[C@H]1O [Compound 191] | – | – | – |
| 31.6 | 398 | 100 | CC(C)c1cnc2cc(OC[C@H]3O[C@@H](n4ccc5c(N)ncnc54)[C@H](O)[C@@H]3O)ccc2c1 [Compound 214] | – | – | – |
| 7.94 | 1260 | 39.8 | Nc1ncc2ccc(CC[C@H]3C[C@@H](n4ccc5c(Cl)ncnc54)[C@H](O)[C@@H]3O)cc2n1 [Compound 215] | – | – | – |
| 1 | 10 | 7.94 | Nc1ncc2ccc(CC[C@H]3C[C@@H](n4ccc5c(N)ncnc54)[C@H](O)[C@@H]3O)cc2n1 [Compound 216] | – | – | – |
| 5.01 | 39.8 | 20 | Cc1cnc2cc(OC[C@H]3O[C@@H](n4ccc5c(N)ncnc54)[C@H](O)[C@@H]3O)ccc2c1 [Compound 217] | – | – | – |
| 2000 | > 20000 | 3160 | NC(=O)c1ccc2ccc(OC[C@H]3O[C@@H](n4ccc5c(N)ncnc54)[C@H](O)[C@@H]3O)cc2n1 [Compound 245] | – | – | – |
